Test results: US12269859B2, “Synthetic immune receptors and methods of use thereof” (Angeles Therapeutics, Inc., priority 2016, dated 2025)

Tested on: target antigen-expressing cell line
Experiment: Jurkat NFAT-GFP assay, coculture with target cell lines expressing the respective target antigen (summary Table 10A)
Assay type: cell-based, human
Set-up: key: The signs +/−, +, 2+ etc. after the name of the cell lines indicate the relative degree of positivity on the Jurkat-NFAT-GFP assay as measured by the % GFP positive cells; +: relative degree of positivity on the Jurkat-NFAT-GFP assay as measured by the % GFP positive cells; 2+: relative degree of positivity on the Jurkat-NFAT-GFP assay as measured by the % GFP positive cells
Settings: relative % GFP positive cells; for NFAT-GFP ASSAY Positive Cell lines: NALM6: SIR-expressing Jurkat-NFAT-GFP cells cocultured with NALM6
Description: (B) Induction of NFAT promoter driven GFP expression. The control vector- and SIR-expressing Jurkat-NFAT-GFP cocultured for 4-24 hours with the target antigen-expressing cell line (described above) and their ability to bind to the target antigen is assayed by measuring induction of GFP expression using Flow Cytometry. Cellular supernatant is collected and assayed for the induction of cytokines (e.g., IL2).
Jurkat NFAT-GFP Assay For Synthetic Immune Receptors. The Jurkat-NFAT-GFP cells are engineered in such a way that the IL-2 promoter, which carries NFAT binding sites, is cloned upstream of the GFP gene. These cells have been used to study signaling via TCR and CAR. The different SIRs were stably expressed in Jurkat NFAT-GFP cells by lentiviral mediated gene transfer, followed by selection with puromycin. The SIR-expressing Jurkat-NFAT-GFP cells were cocultured with the target cells at E:T ratio of approximately 1:2 for approximately 4 hours to 18 hours. When the interaction between SIRs and their target antigen results in activation of the NFAT pathway, GFP expression is induced.
Induction of GFP expression by coculturing of Jurkat-NFAT-GFP cells expressing different SIR constructs and the different target cells was studied essentially as described previously (Wu, Roybal, Puchner, Onuffer, & Lim, 2015). GFP expression was monitored by FACS analysis. A few representative examples of this assay are shown in the FIG. 13A-B. In panel A, control Jurkat-NFAT-GFP cells or those expressing SIRs targeting CD19 (clone ID 051716-I08), MPL (Clone ID: 040716-A07) and BCMA (Clone ID: 011116-A07) were incubated with RAJI (top), HEL (middle) or U266 (bottom) cells, respectively. […] In panel B, Jurkat cells expressing SIR targeting CDH6 (Clone ID: 051716-J05), CD276 (Clone ID: 050516-Q06) and Her2/neu (Clone ID: 050516-I03) were incubated with SKOV3 (top) and […] (middle and bottom) cells, respectively. […] The Jurkat-NFAT-GFP cells were engineered to express different SIRs targeting other antigens and the experiment repeated upon coculture with the target cells expressing their respective target antigen. The Jurkat-NFAT-GFP (parental) cells were used as control. The names of different SIRs, their SEQ ID NOs, component antigen binding domains and TCR chains can be determined by reference to Tables 7A-7H. A SIR is considered positive in the assay in case the SIR expressing Jurkat-NFAT-GFP cells show greater % GFP positive cells when cultured with the target cell line as compared to parental Jurkat-NFAT-GFP cells. […] The signs +/−, +, 2+ etc. after the name of the cell lines indicate the relative degree of positivity on the Jurkat-NFAT-GFP assay as measured by the % GFP positive cells after culture of the SIR expressing Jurkat-NFAT-GFP cells with that cell line. […] In addition, great diversity of response against the same target cell line is observed with Jurkat cells expressing SIRs containing different antigen binding domains targeting the same antigen (e.g., SIRs having antigen binding domains derived form different CD19 antibodies) even when the SIRs share the same TCR chains and linkers. Finally, Jurkat cells expressing SIRs targeting different antigens (e.g. CD19 vs CD20) show a diversitiy of response when exposed to the same target cell line. Thus, a diverse immune response can be generated against a single target cell by combining SIRs with different TCR chains, linkers, antigen binding domains and target specificity. Table 10A also summarizes the results of GLuc based T cell cytotoxicity assay observed with different SIRs when exposed to their target cell lines. […]

Substance | NFAT-GFP ASSAY Positive Cell lines: NALM6 | NFAT-GFP ASSAY Positive Cell lines: RAJI (SIR-expressing Jurkat-NFAT-GFP cells cocultured with RAJI)
CD8SP-CD19Bu12-vL-V5-[TCRb-S57C-opt1]-F-P2A-SP-CD19Bu12-vH-Myc-[TCRa-T48C-opt1]-F-F2A-PAC [SEQ ID NO:1021] | (2+) | 
CD8SP-FMC63-vL-V5-[TCRb-S57C-opt1]-F-P2A-SP-FMC63-vH-Myc-[TCRa-T48C-opt1]-F-F2A-PAC [SEQ ID NO:900] | RAJI(2+), NALM6(2+) | RAJI(2+), NALM6(2+)
